Entries after “also recorded” stand apart in the source; their conditions may differ. Values belong to the molecule of their own block, whether it stands above or below them. Where a SMILES comes first, the peptide text is derived from it. Bridges are numbered along the chain shown (N, C = ends). [ ]: non-standard residue; d: D form. dPen = CC(C)(S)[C@@H](N)C(=O)O; βAla = NCCC(=O)O
How the values were obtained:
[1] = target: αvβ3 integrin (K562/αvβ3+ cells) (Homo sapiens, UniProt P05106+P06756); format: binding; conditions: for decrease (loss) of binding affinity / potency relative to LXW7: versus parent LXW7
[2] = target: T1, αvβ5 integrin (αvβ5-K562 cells) (Homo sapiens, UniProt P06756+P18084); format: binding; conditions: 1μM biotinylated LXW64, then streptavidin-PE, flow cytometry
[3] = target: T2, αIIbβ3 integrin (αIIbβ3-K562 cells) (Homo sapiens, UniProt P05106+P08514); format: binding; conditions: 1μM biotinylated LXW64, then streptavidin-PE, flow cytometry
[4] = system: U-87MG glioblastoma cells; test: Binding to U-87MG glioblastoma cells in vitro; format: cell-based
[5] = target: T3, α5β1 integrin (parent K562 cells) (Homo sapiens, UniProt P05556+P08648); format: binding; conditions: 1μM biotinylated LXW64, then streptavidin-PE, flow cytometry
[6] = target: T4, αvβ3 integrin (αvβ3-K562 cells) (Homo sapiens, UniProt P05106+P06756); format: binding; conditions: 1μM biotinylated LXW64, then streptavidin-PE, flow cytometry
[7] = system: glioblastoma U-87MG or melanoma A375M xenograft models; conditions: in vivo and ex vivo optical imaging, U-87MG or A375M xenograft models; cited from earlier work
[8] = target: T2, αIIbβ3 integrin (αIIbβ3-K562 cells); conditions: earlier study; cited from earlier work
[9] = target: T3, α5β1 integrin (parent K562 cells); conditions: earlier study; cited from earlier work
[10] = target: T1, αvβ5 integrin (αvβ5-K562 cells); conditions: earlier study; cited from earlier work
[11] = target: T4, αvβ3 integrin (αvβ3-K562 cells); conditions: earlier study; cited from earlier work

decrease (loss) of binding affinity / potency relative to LXW7 [1]: 11 fold
Molecule: CC(C)[C@H]1NC(=O)[C@@H](CC(=O)O)NC(=O)[C@H](CC(=O)O)NC(=O)CNC(=O)[C@H](CCCNC(=N)N)NC(=O)CCNC(=O)[C@H](N)CSSC[C@H](C(N)=O)NC1=O [peptide 9, c-βala-RGDdvc-NH2] (H-[dC][βAla]RGD[dD][dV][dC]-NH2; disulfide 1-8 (inferred); N-terminus assumed)

decrease (loss) of binding affinity / potency relative to LXW7 [1]: 10 fold
Molecule: CC(C)[C@H]1NC(=O)[C@@H](CC(=O)O)NC(=O)[C@H](CC(=O)O)NC(=O)CNC(=O)[C@H](CCCNC(=N)N)NC(=O)CNC(=O)[C@@H](N)CSSC[C@H](C(N)=O)NC1=O [peptide 2, CGRGDdvc-NH2] (H-CGRGD[dD][dV][dC]-NH2; disulfide 1-8 (inferred); N-terminus assumed)

decrease (loss) of binding affinity / potency relative to LXW7 [1]: 4 to 10 fold
Molecule: CC(C)[C@H]1NC(=O)[C@@H](CC(=O)O)NC(=O)[C@H](CC(=O)O)NC(=O)CNC(=O)[C@H](CCCNC(=N)N)NC(=O)CNC(=O)[C@H](N)C(C)(C)SSC(C)(C)[C@H](C(N)=O)NC1=O [peptide 7, DPen-GRGDdv-DPen-NH2] (H-[dPen]GRGD[dD][dV][dPen]-NH2; disulfide 1-8 (inferred); N-terminus assumed)

binding affinity compared with LXW7 (in words) [1]: modest loss of potency
Molecule: R4-cGRGDdvc-NH2 [compound 21]

Continued, molecule first:

Molecule: CC(C)[C@H]1NC(=O)[C@@H](CC(=O)O)NC(=O)[C@H](CC(=O)O)NC(=O)CNC(=O)[C@H](CCCNC(=N)N)NC(=O)CNC(=O)[C@H](N)C(C)(C)SSC[C@H](C(N)=O)NC1=O [peptide 5, DPen-GRGDdvc-NH2] (H-[dPen]GRGD[dD][dV][dC]-NH2; disulfide 1-8 (inferred); N-terminus assumed)
decrease (loss) of binding affinity / potency relative to LXW7 [1]: 4 to 10 fold

Molecule: CC(C)[C@H]1NC(=O)[C@@H](CC(=O)O)NC(=O)[C@H](CC(=O)O)NC(=O)CNC(=O)[C@H](CCCNC(=N)N)NC(=O)CNC(=O)[C@H](N)CSSC[C@@H](C(N)=O)NC1=O [peptide 3, cGRGDdvC-NH2] (H-[dC]GRGD[dD][dV]C-NH2; disulfide 1-8 (inferred); N-terminus assumed)
decrease (loss) of binding affinity / potency relative to LXW7 [1]: 16 fold

Molecule: N=C(N)NCCC[C@@H]1NC(=O)CNC(=O)[C@H](N)CSSC[C@H](C(N)=O)NC(=O)[C@@H](Cc2cccc3ccccc23)NC(=O)[C@@H](CC(=O)O)NC(=O)[C@H](CC(=O)O)NC(=O)CNC1=O [peptide 40, cGRGDd-DNal1-c-NH2]
binding to αvβ5-K562 cells [2]: weakly
binding to αIIbβ3-K562 cells [3]: weakly
binding to U-87MG glioblastoma cells [4]: binding strongly
binding to parent K562 cells (α5β1) [5]: no binding
higher binding affinity than LXW7 ([1]; versus LXW7): 6.6 fold
binding to αvβ3-K562 cells [6]: strongly; also recorded: significant positive binding

Molecule: R3-cGRGDdvc-NH2 [compound 20]
binding affinity compared with LXW7 (in words) [1]: modest loss of potency

Molecule: CC(C)[C@H]1NC(=O)[C@@H](CC(=O)O)NC(=O)[C@H](CC(=O)O)NC(=O)CNC(=O)[C@H](CCCNC(=N)N)NC(=O)[C@@H](C)NC(=O)[C@H](N)CSSC[C@H](C(N)=O)NC1=O [peptide 8, caRGDdvc-NH2] (H-[dC][dA]RGD[dD][dV][dC]-NH2; disulfide 1-8 (inferred); N-terminus assumed)
decrease (loss) of binding affinity / potency relative to LXW7 [1]: 7.8 fold

Molecule: CC(C)[C@H]1NC(=O)[C@@H](CC(=O)O)NC(=O)[C@H](CC(=O)O)NC(=O)CNC(=O)[C@H](CCCNC(=N)N)NC(=O)CNC(=O)[C@@H](N)CSSC[C@@H](C(N)=O)NC1=O [peptide 4, CGRGDdvC-NH2] (H-CGRGD[dD][dV]C-NH2; disulfide 1-8 (inferred); N-terminus assumed)
binding affinity compared with LXW7 (in words) [1]: complete loss of binding affinity

Molecule: CC(C)[C@H]1NC(=O)[C@@H](CC(=O)O)NC(=O)[C@H](CC(=O)O)NC(=O)CNC(=O)[C@H](CCCNC(=N)N)NC(=O)CNC(=O)[C@H](N)CSSC(C)(C)[C@H](C(N)=O)NC1=O [peptide 6, cGRGDdv-DPen-NH2] (H-[dC]GRGD[dD][dV][dPen]-NH2; disulfide 1-8 (inferred); N-terminus assumed)
decrease (loss) of binding affinity / potency relative to LXW7 [1]: 4 to 10 fold

Molecule: CC(C)[C@H]1NC(=O)[C@@H](CC(=O)O)NC(=O)[C@H](CC(=O)O)NC(=O)CNC(=O)[C@H](CCCNC(=N)N)NC(=O)CNC(=O)[C@H](N)CSSC[C@H](C(N)=O)NC1=O [peptide 1, cGRGDdvc-NH2] (H-[dC]GRGD[dD][dV][dC]-NH2; disulfide 1-8 (inferred); N-terminus assumed)
liver uptake [7]: low liver uptake
tumor uptake [7]: excellent tumor uptake
binding to αIIbβ3 integrin [8]: weakly
binding to α5β1 integrin [9]: no binding
binding to αvβ5 integrin [10]: weakly
binding to αvβ3 integrin [11]: strongly
